Measurements from patent publication US20070196406A1, “1,3-Dimethylbutyl carboxanilides for controlling undesirable micro-organisms” (priority 2003, published 2007).

Legend:
Venturia inaequalis = experiment: Venturia test (apple)/protective; assay type: in vivo; conditions: 240 h, apple plants, protective spray, evaluation 10 days after inoculation, read-out: Efficacy in %
Procedure: Venturia Test (Apple)/Protective
(§1) • Solvents: 24.5 parts by weight of acetone • 24.5 parts by weight of dimethylacetamide • Emulsifier: 1 part by weight of alkylaryl polyglycol ether
(§2) To produce a suitable preparation of active compound, 1 part by weight of active compound is mixed with the stated amounts of solvents and emulsifier, and the concentrate is diluted with water to the desired concentration.
To test for protective activity, young plants are sprayed with the preparation of active compound at the stated application rates. After the spray coating has dried on, the plants are inoculated with an aqueous conidia suspension of the apple scab pathogen Venturia inaequalis and then remain in an incubation cabinet about 20° C. and 100% relative atmospheric humidity for 1 day.
The plants are then placed in a greenhouse at about 21° C. and a relative atmospheric humidity of about 90%.
(§3) Evaluation is carried out 10 days after the inoculation. 0% means an efficacy which corresponds to that of the control, whereas an efficacy of 100% means that no infection is observed.

Podosphaera leucotricha = experiment: Podosphaera test (apple)/protective; assay type: in vivo; conditions: 240 h, apple plants, protective spray, evaluation 10 days after inoculation, read-out: Efficacy in %
Procedure: Podosphaera Test (Apple)/Protective
• Solvents: 24.5 parts by weight of acetone • 24.5 parts by weight of dimethylacetamide • Emulsifier: 1 part by weight of alklylaryl polyglycol ether
as §2
To test for protective activity, young plants are sprayed with the preparation of active compound at the stated application rate. After the spray coating has dried on, the plants are inoculated with an aqueous spore suspension of the apple mildew pathogen Podosphaera leucotricha. The plants are then placed in a greenhouse at about 23° C. and a relative atmospheric humidity of about 70%.
as §3

Puccinia recondita = experiment: Puccinia test (wheat)/protective; assay type: in vivo; conditions: 240 h, wheat plants, protective spray, evaluation 10 days after inoculation, read-out: Efficacy in %
Procedure: Puccinia Test (Wheat)/Protective
Solvent: 50 parts by weight of N,N-dimethylacetamide
Emulsifier: 1 part by weight of alkylaryl polyglycol ether
(§4) To produce a suitable preparation of active compound, 1 part by weight of active compound is mixed with the stated amounts of solvent and emulsifier, and the concentrate is diluted with water to the desired concentration.
To test for protective activity, young plants are sprayed with the preparation of active compound at the stated application rate. After the spray coating has dried on, the plants are sprayed with a conidia suspension of Puccinia recondita. The plants remain in an incubation cabinet at 20° C. and 100% relative atmospheric humidity for 48 hours.
The plants are then placed in a greenhouse at a temperature of about 20° C. and a relative atmospheric humidity of 80% to promote the development of rust pustules.
as §3

Botrytis cinerea = experiment: Botrytis test (bean)/protective; assay type: in vivo; conditions: 48 h, bean plants, protective spray, evaluation two days after inoculation, read-out: Efficacy in %
Procedure: Botrytis Test (Bean)/Protective
as §1, §4
To test for protective activity, young plants are sprayed with the preparation of active compound at the stated application rate. After the spray coating has dried on, 2 small pieces of agar colonized by Botrytis cinerea are placed under each leaf. The inoculated plants are placed in a dark chamber at about 20° C. and 100% relative atmospheric humidity.
Two days after the inoculation, the size of the infected areas on the leaves is evaluated. 0% means an efficacy which corresponds to that of the control, whereas an efficacy of 100% means that no infection is observed.

[1] = logP determination by HPLC on a reversed-phase column (EEC Directive 79/831 Annex V.A8); assay type: physicochemical; conditions: reversed-phase C18 HPLC column, pH 2.3, C 18 reversed phase, 43° C.
Procedure: The logP values given in the Preparation Examples and tables above are determined in accordance with EEC Directive 79/831 Annex V.A8 by HPLC (High Performance Liquid Chromatography) on a reversed-phase column (C 18). Temperature: 43° C.
The determination is carried out in the acidic range at pH 2.3 using the mobile phases 0.1% aqueous phosphoric acid and acetonitrile; linear gradient from 10% acetonitrile to 90% acetonitrile.
Calibration is carried out using unbranched alkan-2-ones (with 3 to 16 carbon atoms) with known logP values (determination of the logP values by the retention times using linear interpolation between two successive alkanones).

SMILES: Cc1nc(C(F)F)c(C(=O)Nc2ccc(F)cc2C(C)CC(C)C)s1 (stereo not shown) [drawing 104]
- pest or weed control at 100 g/ha (Venturia inaequalis): 100%

SMILES: CC(C)CC(C)c1cc(F)ccc1NC(=O)c1cn(C)nc1C(F)(F)F (stereo not shown) [drawing 87]
- pest or weed control at 100 g/ha (Podosphaera leucotricha): 88%

SMILES: CC(C)CC(C)c1ccccc1NC(=O)c1cn(C)nc1C(C)F (stereo not shown) [drawing 86]
- pest or weed control at 100 g/ha (Podosphaera leucotricha): 100%

SMILES: CC(C)CC(C)c1cc(F)ccc1NC(=O)c1cn(C)nc1C(F)(F)F (stereo not shown) [drawing 121]
- pest or weed control at 500 g/ha (Puccinia recondita): 100%

SMILES: Cc1sccc1C(=O)Nc1ccc(F)cc1C(C)CC(C)C (stereo not shown) [drawing 112]
- pest or weed control at 500 g/ha (Botrytis cinerea): 100%

SMILES: COc1nc(C)sc1C(=O)Nc1ccccc1C(C)CC(C)C (stereo not shown) [Example 3, N-[2-(1,3-dimethylbutyl)phenyl]-4-methoxy-2-methyl-1,3-thiazole-5-carboxamide]
- chromatographic logP [1]: 4.45

SMILES: CC(C)CC(C)c1ccccc1NC(=O)c1scnc1Cl (stereo not shown) [drawing 106]
- pest or weed control at 100 g/ha (Botrytis cinerea): 99%

SMILES: Cc1nc(C(F)F)c(C(=O)Nc2ccc(F)cc2C(C)CC(C)C)s1 (stereo not shown) [drawing 92]
- pest or weed control at 100 g/ha (Podosphaera leucotricha): 100%

SMILES: CC(C)CC(C)c1ccccc1NC(=O)c1cn(C)nc1C(Cl)Cl (stereo not shown) [Example 1, 3-(dichloromethyl)-1-methyl-N-[2-(1,3-dimethylbutyl)phenyl]-1H-pyrazole-4-carboxamide]
- chromatographic logP [1]: 3.74

SMILES: Cn1cc(C(=O)O)c(C=O)n1 [XI-1]
- chromatographic logP [1]: -0.19

SMILES: CC(C)CC(C)c1cc(F)ccc1NC(=O)c1cccnc1Cl (stereo not shown)
- pest or weed control at 500 g/ha (Puccinia recondita): 100%

SMILES: CC1=C(C(=O)Nc2ccc(F)cc2C(C)CC(C)C)SCCO1 (stereo not shown) [drawing 130]
- pest or weed control at 500 g/ha (Puccinia recondita): 100%

SMILES: CC(C)CC(C)c1cc(F)ccc1NC(=O)c1cn(C)nc1C(F)F (stereo not shown) [drawing 124]
- pest or weed control at 500 g/ha (Puccinia recondita): 100%

SMILES: Cc1nc(C(F)F)c(C(=O)Nc2ccc(F)cc2C(C)CC(C)C)s1 (stereo not shown) [drawing 129]
- pest or weed control at 500 g/ha (Puccinia recondita): 100%

SMILES: CCOC(=O)c1sc(C)nc1OC(F)F [II-6]
- chromatographic logP [1]: 2.54

SMILES: CC1=C(C(=O)Nc2ccc(F)cc2C(C)CC(C)C)SCCO1 (stereo not shown) [drawing 93]
- pest or weed control at 100 g/ha (Podosphaera leucotricha): 100%

SMILES: CC(C)CC(C)c1ccccc1NC(=O)c1ccoc1C(F)(F)F (stereo not shown) [drawing 84]
- pest or weed control at 100 g/ha (Podosphaera leucotricha): 98%

SMILES: Cc1sccc1C(=O)Nc1ccccc1C(C)CC(C)C (stereo not shown) [drawing 107]
- pest or weed control at 100 g/ha (Botrytis cinerea): 97%

SMILES: CC(C)CC(C)c1ccccc1NC(=O)c1scnc1Cl (stereo not shown) [drawing 94]
- pest or weed control at 100 g/ha (Venturia inaequalis): 99%

SMILES: CC(C)CC(C)c1cc(F)ccc1NC(=O)c1cn(C)nc1C(F)F (stereo not shown) [drawing 111]
- pest or weed control at 500 g/ha (Botrytis cinerea): 100%

SMILES: CC(C)CC(C)c1ccccc1NC(=O)c1ccoc1C(F)(F)F (stereo not shown) [drawing 96]
- pest or weed control at 100 g/ha (Venturia inaequalis): 96%

SMILES: Cc1sccc1C(=O)Nc1ccc(F)cc1C(C)CC(C)C (stereo not shown) [drawing 125]
- pest or weed control at 500 g/ha (Puccinia recondita): 100%

SMILES: Cc1ccsc1C(=O)Nc1ccc(F)cc1C(C)CC(C)C (stereo not shown) [drawing 91]
- pest or weed control at 100 g/ha (Podosphaera leucotricha): 99%

SMILES: Cc1sccc1C(=O)Nc1ccccc1C(C)CC(C)C (stereo not shown) [drawing 83]
- pest or weed control at 100 g/ha (Podosphaera leucotricha): 100%

SMILES: CCOC(=O)c1cn(C)nc1OC [II-4]
- chromatographic logP [1]: 1.14

SMILES: Cc1ccsc1C(=O)Nc1ccc(F)cc1C(C)CC(C)C (stereo not shown) [drawing 114]
- pest or weed control at 500 g/ha (Botrytis cinerea): 98%

SMILES: CC1=C(C(=O)Nc2ccc(F)cc2C(C)CC(C)C)SCCO1 (stereo not shown) [drawing 116]
- pest or weed control at 500 g/ha (Botrytis cinerea): 100%

SMILES: Cc1nc(O)c(C(=O)Nc2ccccc2C(C)CC(C)C)s1 (stereo not shown) [Example 4, N-[2-(1,3-dimethylbutyl)phenyl]-4-hydroxy-2-methyl-1,3-thiazole-5-carboxamide]
- chromatographic logP [1]: 2.68

SMILES: Cc1occc1C(=O)Nc1ccc(F)cc1C(C)CC(C)C (stereo not shown)
- pest or weed control at 500 g/ha (Puccinia recondita): 100%

SMILES: Cc1nc(C(F)(F)F)c(C(=O)Nc2ccc(F)cc2C(C)CC(C)C)s1 (stereo not shown) [drawing 113]
- pest or weed control at 500 g/ha (Botrytis cinerea): 100%

SMILES: CC(C)CC(C)c1ccccc1NC(=O)c1cn(C)nc1Cl (stereo not shown) [drawing 85]
- pest or weed control at 100 g/ha (Podosphaera leucotricha): 100%

SMILES: CC(C)CC(C)c1ccccc1NC(=O)c1cn(C)nc1C=O (stereo not shown) [Example 2, N-[2-(1,3-dimethylbutyl)phenyl]-3-formyl-1-methyl-1H-pyrazole-4-carboxamide]
- chromatographic logP [1]: 3.64

SMILES: CC1=C(C(=O)Nc2ccc(F)cc2C(C)CC(C)C)SCCO1 (stereo not shown) [drawing 105]
- pest or weed control at 100 g/ha (Venturia inaequalis): 100%

SMILES: CC(C)CC(C)c1cc(F)ccc1NC(=O)c1cn(C)nc1C(F)F (stereo not shown) [drawing 88]
- pest or weed control at 100 g/ha (Podosphaera leucotricha): 100%

SMILES: CC(C)CC(C)c1cc(F)ccc1NC(=O)c1cn(C)nc1C(F)(F)F (stereo not shown) [drawing 99]
- pest or weed control at 100 g/ha (Venturia inaequalis): 100%

SMILES: COC(=O)c1cn(C)nc1C=O [Example X-1]
- chromatographic logP [1]: 0.46

SMILES: CC(C)CC(C)c1cc(F)ccc1NC(=O)c1cn(C)nc1C(F)(F)F (stereo not shown) [drawing 110]
- pest or weed control at 500 g/ha (Botrytis cinerea): 99%

SMILES: Cc1sccc1C(=O)Nc1ccc(F)cc1C(C)CC(C)C (stereo not shown) [drawing 101]
- pest or weed control at 100 g/ha (Venturia inaequalis): 94%

SMILES: CC(C)CC(C)c1ccccc1NC(=O)c1scnc1Cl (stereo not shown) [drawing 82]
- pest or weed control at 100 g/ha (Podosphaera leucotricha): 100%

SMILES: CC(C)CC(C)c1ccccc1NC(=O)c1ccoc1C(F)(F)F (stereo not shown) [drawing 119]
- pest or weed control at 500 g/ha (Puccinia recondita): 100%

SMILES: Cc1nc(Cl)sc1C(=O)Nc1ccccc1C(C)CC(C)C (stereo not shown)
- pest or weed control at 500 g/ha (Puccinia recondita): 100%

SMILES: CC(C)CC(C)c1ccccc1NC(=O)c1cn(C)nc1C(C)F (stereo not shown) [drawing 98]
- pest or weed control at 100 g/ha (Venturia inaequalis): 100%

SMILES: Cc1nc(C(F)(F)F)c(C(=O)Nc2ccc(F)cc2C(C)CC(C)C)s1 (stereo not shown) [drawing 90]
- pest or weed control at 100 g/ha (Podosphaera leucotricha): 100%

SMILES: Cc1sccc1C(=O)Nc1ccccc1C(C)CC(C)C (stereo not shown) [drawing 95]
- pest or weed control at 100 g/ha (Venturia inaequalis): 100%

SMILES: COC(=O)c1cn(C)nc1C(Cl)Cl [XII-1]
- chromatographic logP [1]: 1.8

SMILES: CC(C)CC(C)c1cc(F)ccc1NC(=O)c1cn(C)nc1C(F)F (stereo not shown) [drawing 100]
- pest or weed control at 100 g/ha (Venturia inaequalis): 100%

SMILES: Cc1nc(C(F)(F)F)c(C(=O)Nc2ccc(F)cc2C(C)CC(C)C)s1 (stereo not shown) [drawing 127]
- pest or weed control at 500 g/ha (Puccinia recondita): 100%

SMILES: CC(C)CC(C)c1ccccc1NC(=O)c1cn(C)nc1Cl (stereo not shown) [drawing 97]
- pest or weed control at 100 g/ha (Venturia inaequalis): 100%

SMILES: CC(C)CC(C)c1ccccc1NC(=O)c1cn(C)nc1Cl (stereo not shown) [drawing 120]
- pest or weed control at 500 g/ha (Puccinia recondita): 100%

SMILES: Cc1sccc1C(=O)Nc1ccccc1C(C)CC(C)C (stereo not shown) [drawing 118]
- pest or weed control at 500 g/ha (Puccinia recondita): 100%

SMILES: Cc1nc(C(F)(F)F)c(C(=O)Nc2ccc(F)cc2C(C)CC(C)C)s1 (stereo not shown) [drawing 102]
- pest or weed control at 100 g/ha (Venturia inaequalis): 100%

SMILES: Cc1sccc1C(=O)Nc1ccc(F)cc1C(C)CC(C)C (stereo not shown) [drawing 89]
- pest or weed control at 100 g/ha (Podosphaera leucotricha): 100%

SMILES: CCOC(=O)c1sc(C)nc1OC [II-1]
- chromatographic logP [1]: 1.9

SMILES: CC(C)CC(C)c1cc(F)ccc1NC(=O)c1cn(C)nc1Cl (stereo not shown)
- pest or weed control at 500 g/ha (Puccinia recondita): 100%

SMILES: Cc1ccsc1C(=O)Nc1ccc(F)cc1C(C)CC(C)C (stereo not shown) [drawing 128]
- pest or weed control at 500 g/ha (Puccinia recondita): 100%

SMILES: Cc1ccsc1C(=O)Nc1ccc(F)cc1C(C)CC(C)C (stereo not shown) [drawing 103]
- pest or weed control at 100 g/ha (Venturia inaequalis): 100%

SMILES: Cc1nc(OC(F)F)c(C(=O)O)s1 [II-7]
- chromatographic logP [1]: 1.29

SMILES: COc1nc(C)sc1C(=O)O [II-2]
- chromatographic logP [1]: 0.77
